Data as given in article PMC12066977, “Alkyl Tail Variation on Chalcone‐Based Quaternary Pyridinium Salts as Rule‐of‐Thumb for Antimicrobial Activity” (Archiv Der Pharmazie, 2025).
pIC50: −log10 of the molar value. Like-named read-outs stand apart in the source and are kept apart here.

Columns and labels:
Leishmania donovani = tested on: Leishmania donovani; design: method as in PMID 30669643, PMID 29758517; conditions: lead compound 1, previously reported; read-out: IC50 against Leishmania donovani; cited from earlier work
C. albicans ATCC 10231 [1] = conditions: lead compound 1, previously reported; read-out: IC50 [95% confidence interval] Candida albicans; cited from earlier work
S. aureus ATCC 25923 = test: Broth microdilution antimicrobial assay (MIC, IC50); format: cell-based; conditions: Staphylococcus aureus; for pIC50: ATCC25923, 50% growth inhibition, 24 h, read-out: IC50 [95% confidence interval] Staphylococcus aureus; for MIC: ATCC25923, 24 h, broth microdilution, 37°C
Protocol: (§1) Reference strains of Staphylococcus aureus (ATCC 25923), Escherichia coli (ATCC 25922), and Candida albicans (ATCC 10231) were used in this study as microbial models. These strains were purchased from the American Type Culture Collection (ATCC); bacterial cultures were routinely grown on 5% blood agar plate, while fungal cultures on Sabouraud Dextrose Agar (Biolife […]., Milan, Italy). […] In short, microbial inocula were prepared at 0.5 McFarland in PBS and, subsequently, bacterial suspensions were diluted 1:200 in Mueller-Hinton broth (Sigma-Aldrich, St. Louis, MO, USA), while fungal inoculum was diluted 1:20 in RPMI-1640 medium (Gibco®, ThermoFisher Scientific Inc., Waltham, MA, USA), containing glucose 2%, 0.3% levo-glutamine buffered to pH 7.0 with 0.165 M 3-(N-morpholino) propanesulfonic acid (MOPS). A total of 100 μL of these microbial suspensions was introduced into a 96-well microplate and incubated with 100 μL of the compounds, two-fold serially diluted in the range of 100-0.19 μM. Positive controls (microbial suspensions in regular media), negative controls (only compounds), and solvent controls (microbial suspensions incubated with DMSO dilutions) were included in the tests. The plate was incubated at 37°C for 24 h, and subsequently the optical density at 630 nm (OD630nm) was spectrophotometrically measured. Experiments were carried out in triplicate in three biological replicates. […] Statistical analysis was carried out by using GraphPad Prism version 9.4.1 for Windows (GraphPad Software, San Diego, California USA, www.graphpad.com). ^a MIC (Minimum Inhibitory Concentration) were determined in vitro by means of a standardized microdilution assay, in compliance with the Clinical and laboratory Standard Institute (CLSI) guidelines (30). Microbial suspensions were prepared at 0.5 McFarland in PBS, then diluted in the media and transferred in a 96 micro-well plate together with the serially 2-fold dilutions of the compounds. After 24h of incubation at 37°C, microbial growths were evaluated by measuring the Optical Density at 600 nm, then percentage values were obtained as relative to the positive controls (microbial suspensions in regular media).

E. coli ATCC 25922 = test: as above; format: cell-based; conditions: Escherichia coli, 24 h; for MIC: ATCC25922, broth microdilution, 37°C
Protocol: as §1

Vero cells (ATCC CCL-81) = test: Cell viability and proliferation assay (WST8/CCK-8); format: cell-based; conditions: 48 h treatment, CCK-8; read-out: CC50 [95% CI] Vero cells
Protocol: (§2) Vero cell line (ATCC CCL‐81) was selected as a model system to investigate the overall effect of chalcones on non‐malignant mammalian cells. […] For experiments, cells were seeded into 96‐well plates at 10^4 cells/well and incubated at 37°C for 24 h. Following washes with PBS, the cell monolayer was incubated with 100 µL of medium containing the twofold serial dilutions of the compounds. Both untreated cells and cells incubated with medium containing solvent dilutions were included in each experiment as controls. The cell viability was assessed by a WST8‐based assay according to the manufacturer's instructions (CCK‐8, Cell Counting Kit‐8, Dojindo Molecular Technologies, Rockville, MD, USA). After 48 h of incubation, culture medium was removed from each well, the monolayer was washed with PBS, and 100 µL of fresh medium containing 10 µL of CCK‐8 solution was added. Following a 2 h incubation at 37°C, the OD450nm was read, and data were expressed as the percentage of cell viability relative to the untreated controls. The CC50 was obtained on the corresponding dose–response curves generated as previously reported for IC50 values. Experiments were carried out in triplicate in three biological replicates.

C. albicans ATCC 10231 [2] = test: Broth microdilution antimicrobial assay (MIC, IC50); format: cell-based; conditions: Candida albicans, 24 h; for MIC: ATCC10231, broth microdilution, 37°C
Protocol: as §1

[3] = tested on: S. aureus ATCC 25923, E. coli ATCC 25922, C. albicans ATCC 10231; test: Broth microdilution antimicrobial assay, statements pooled over the three strains; format: cell-based; conditions: stated for S. aureus, E. coli and C. albicans together; read-out: MIC toward the three selected strains
Protocol: The antimicrobial activity of the compounds was assessed by determining the Minimum Inhibitory Concentration (MIC) by a well‐established broth microdilution procedure in microtiter plates and in compliance with the Clinical and Laboratory Standards Institute (CLSI) guidelines.
In short, microbial inocula were prepared at 0.5 McFarland in PBS and, subsequently, bacterial suspensions were diluted 1:200 in Mueller–Hinton broth (Sigma‐Aldrich, St. Louis, MO, USA), while fungal inoculum was diluted 1:20 in RPMI‐1640 medium (Gibco®, ThermoFisher Scientific Inc., Waltham, MA, USA), containing glucose 2%, 0.3% levo‐glutamine buffered to pH 7.0 with 0.165 M 3‐(N‐morpholino) propanesulfonic acid (MOPS). A total of 100 µL of these microbial suspensions was introduced into a 96‐well microplate and incubated with 100 µL of the compounds, two‐fold serially diluted in the range of 100–0.19 µM. Positive controls (microbial suspensions in regular media), negative controls (only compounds), and solvent controls (microbial suspensions incubated with DMSO dilutions) were included in the tests. The plate was incubated at 37°C for 24 h, and subsequently the optical density at 630 nm (OD630nm) was spectrophotometrically measured. Experiments were carried out in triplicate in three biological replicates. […]

[4] = tested on: human red blood cells (hRBCs); test: Hemolytic activity assay; format: cell-based; conditions: 25 µM, 90 min, 37°C
Protocol: The hemolytic activity of some selected compounds was evaluated as the amount of hemoglobin released by the disruption of human red blood cells (hRBCs). For the experiments, fresh hRBCs were collected by centrifugation at 1500g for 10 min, washed three times with PBS, and resuspended to a final concentration of 4% w/v hRBCs in PBS. Then, 100 µL of hRBCs suspension and an equal volume of the twofold dilutions of the antimicrobial peptides were mixed in a 96‐well plate and incubated for 90 min at 37°C. After centrifugation at 1000g for 5 min, the supernatants were transferred into a clear 96‐well plate, and OD405nm was read. Untreated hRBCs (incubated with PBS) and hRBCs incubated with 1% Triton X‐100 were employed as negative and positive controls, respectively. The hemolysis percentage was calculated as [OD405nm (sample) − OD4_05nm (negative control)]/[OD405nm (positive control) − OD405nm (negative control)] × 100. Minimal hemolytic concentrations (MHCs) were defined as the compound concentration causing 10% hemolysis. Three independent experiments were performed in triplicate.

S. aureus biofilm = test: Inhibition of biofilm formation (crystal violet staining); format: cell-based; conditions: Staphylococcus aureus, 24 h, CV staining, read-out: inhibition of S. aureus biofilm production
Protocol: (§3) The ability of some selected compounds to inhibit biofilm formation was assessed by established protocols with minor modifications. In short, exponential cultures of S. aureus, E. coli, and C. albicans grown in Tryptic Soy broth (TSB, Sigma‐Aldrich, St. Louis, MO, USA) were adjusted to a final density of 10^5 CFU/mL. Aliquots of 100 µL of the microbial cultures were transferred to a 96‐well flat‐bottom polystyrene microplate, and then incubated at 37°C for 90 min to promote bacterial adhesion. Thereafter, wells were slowly rinsed with PBS to remove nonattached cells, and 100 µL of TSB supplemented with 1% glucose containing the twofold serial dilutions of the compounds was added. After incubation at 37°C for 24 h, the free‐floating cells were removed, and the biofilms were carefully washed with PBS. The biomass was quantified by a standardized crystal violet (CV) staining. Briefly, 100 µL of CV solution (0.1% in water) was added to each well containing a completely air‐dried biofilm, and incubated for 30 min at 37°C. […] Finally, the colored supernatants were transferred to a new microplate, and the OD550nm was measured. The percentage inhibition of biofilm formation in the different experimental conditions was calculated relative to the biofilm mass formed in the absence of compounds (positive control).

E. coli biofilm = test: as above; format: cell-based; conditions: Escherichia coli, 24 h, CV staining, read-out: inhibition of E. coli biofilm production
Protocol: as §3

[5] = Cell viability and proliferation assay (WST8/CCK-8); format: cell-based; conditions: African green monkey, Vero cells (ATCC CCL-81), 48 h treatment, CCK-8; read-out: CC50 [95% CI] Vero cells
Protocol: as §2

| SMILES | pIC50 (Leishmania donovani) | pIC50 (C. albicans ATCC 10231 [1]) | pIC50 (S. aureus ATCC 25923) | MIC (E. coli ATCC 25922) | CC50 (Vero cells (ATCC CCL-81)) | MIC (S. aureus ATCC 25923) | MIC (C. albicans ATCC 10231 [2]) | MIC [3] | hemolytic activity [4] | inhibition at 25 µM (S. aureus biofilm) | inhibition at 25 µM (E. coli biofilm) | CC50 at 48 h [5] | pIC50 (C. albicans ATCC 10231 [2]; ATCC10231, 50% growth inhibition, read-out: IC50 [95% confidence interval] Candida albicans) | pIC50 (E. coli ATCC 25922; ATCC25922, 50% growth inhibition, read-out: IC50 [95% confidence interval] Escherichia coli) |
| --- | --- | --- | --- | --- | --- | --- | --- | --- | --- | --- | --- | --- | --- | --- |
| C#CCOc1ccc(C(=O)/C=C/c2cccnc2)c(OCC#C)c1 [Compound 1] | 5.40 | 4.36 | 4.32 | > 100 µM |  |  |  |  |  |  |  |  |  |  |
| C#CCOc1ccc(C(=O)/C=C/c2cccnc2)c(OCC#C)c1 [Compound 9, (E)‐3‐{3‐[2,4‐Bis(prop‐2‐yn‐1‐yloxy)phenyl]‐3‐oxoprop‐1‐en‐1‐yl}pyridin‐1‐ium bromide] |  |  |  |  | 6.2 µM | > 100 µM | > 100 µM | ≥ 50 µM |  |  |  |  |  |  |
| C#CCOc1ccc(C(=O)/C=C/c2ccc[n+](CCCCCCCCCC)c2)c(OCC#C)c1.[Br-] [Compound 4, (E)‐3‐{3‐[2,4‐Bis(prop‐2‐yn‐1‐yloxy)phenyl]‐3‐oxoprop‐1‐en‐1‐yl}‐1‐decylpyridin‐1‐ium bromide] |  |  | 6.08 | 6.25 µM |  | 1.56 µM | 6.25 µM |  | 30.0% | > 90% | > 90% | 12.8 µM | 5.37 | 5.35 |
